Reference: patent US20080319001A1, “Cancer Treatment Using Specific 3,6,9-Substituted Acridines” (priority 2005, published 2008)
Where two headings read alike, the source gives them in different places.

Legend:
[1] = Cytotoxicity / growth inhibition, MCF7; format: cell-based; conditions: human, MCF7 cells; read-out: Cytotoxic IC50 vs. MCF7
Metabolic stability, HLM = format: in vitro ADME, human
[2] = tested on: telomerase (extracts from A2780 human ovarian carcinoma cells); assay: Modified telomeric repeat amplification protocol (TRAP) assay, cell-free; format: biochemical
Experimental: The ability of compounds to inhibit telomerase in a cell-free assay was assessed with a modified TRAP assay using extracts from exponentially growing A2780 human ovarian carcinoma cells. The TRAP assay was performed in 2 steps: • (a) telomerase-mediated extension of the forward primer (TS: 5′-AATCCGTCGAGCAGAGTT, Oswel Ltd., Southampton, UK) contained in a 40 μL reaction mix comprising TRAP buffer (20 mM Tris-HCl (pH 8.3), 68 mM KCl, 1.5 mM MgCl2, 1 mM EGTA, 0.05% v/v Tween 20), 0.05 μg bovine serum albumin, 50 μM of each deoxynucleotide triphosphate, 0.1 μg TS primer, and 3 μCi of [α-P]dCTP (Amersham plc, UK)Protein (40 ng or 20 ng) was then incubated with the reaction mix and agent (acid addition and quaternary dimethiodide salts) at final concentrations of up to 50 μM for 20 min at 25° C. A lysis buffer (no protein) control, heat-inactivated protein control, and 50% protein (20 ng or 10 ng) control were included in each assay; and • (b) while heating at 80° C. in a PCR block of a thermal cycler (Hybaid, UK) for 5 min to inactivate telomerase activity, 0.1 μg of reverse CX primer (3′-[…]-5′) and 2 Units of Taq DNA polymerase (“red hot”, Advanced Biotechnologies) were added. A 3-step PCR was then performed: 94° C. for 30 s, 50° C. for 30 s, and 72° C. for 1 min for 31 cycles. Telomerase-extended PCR products in the presence or absence of compounds were then determined either by electrophoretic separation using 8% w/w acrylamide denaturing gels and analysis by phosphorimaging or autoradiography, or by harvesting on Whatman filters (25 mm glass microfibre) and analysis by liquid scintillation counting.

HPLC solution stability = format: physicochemical
Experimental: Due to the generally low solubility of these compounds in 0.9% NaCl and 5% dextrose it was decided to mix these media with 50% Iso-propanol (IPA) to maintain full dissolution of the compound during these studies.
The remaining 5 mg/ml DMSO stock solution from the pKa determination was used for the stability studies. This solution had been stored in the fridge for several days before these stability studies. A solution with a concentration of 0.1 mg/ml was prepared for each experiment (50 fold dilution of DMSO stock). Stability trials were carried out at 4° C. (fridge) and 25° C. (on top of shaker at 25° C.) and at time points of 0, 1 and 7 days. In the case of 100% IPA data was collected at 0, 1 and 14 days after storage at 25° C. The HPLC purity method discussed in section 4.5 below was used for purity analysis. The largest and second largest peaks were added together due to separation of rotamers as discussed above.

[3] = LogP/D measurement (octanol/ISA water titration); format: physicochemical; conditions: for logD / logP: octanol/ISA (ionic strength adjusted) water; for logP / Measured LogPion: octanol/ISA water; for logP: read-out: Measured LogP
Experimental: The LogP values were measured by titration of solutions of the compound in Octanol/ISA (ionic strength adjusted) water mixtures on a Sirius GipKa instrument. Titrations in different ratios of Octanol to water enabled the calculation of the Log Pion values and therefore the LogD profile. Prediction of LogP values were made using ACD v8.07 and Syracuse KNOWWIN v1.67 software.

[4] = Log P (summary of biological and physicochemical properties, Table 4)
[5] = Table 3, unit inferred, read-out: TRAP EC50
[6] = Table 4, read-out: Telomerase EC50
[7] = 0.9% NaCl mixed with 50% IPA, 0 days
[8] = 0.9% NaCl mixed with 50% IPA, 1 day, 4 ° C.
[9] = 0.9% NaCl mixed with 50% IPA, 1 day, 25 ° C.
[10] = 0.9% NaCl mixed with 50% IPA, 7 days, 4 ° C.
[11] = 0.9% NaCl mixed with 50% IPA, 7 days, 25 ° C.
[12] = 5% Dextrose mixed with 50% IPA, 0 days
[13] = 5% Dextrose mixed with 50% IPA, 1 day, 4 ° C.
[14] = 5% Dextrose mixed with 50% IPA, 1 day, 25 ° C.
[15] = 5% Dextrose mixed with 50% IPA, 7 days, 4 ° C.
[16] = 5% Dextrose mixed with 50% IPA, 7 days, 25 ° C.
[17] = pH 6, read-out: Measured LogD pH 6
[18] = pH 6.5, read-out: Measured LogD pH 6.5
[19] = pH 7.4, read-out: Measured LogD pH 7.4

With `CN(C)c1ccc(Nc2c3ccc(NC(=O)CCN4CCCC4)cc3nc3cc(NC(=O)CCN4CCCC4)ccc23)cc1` [BSG01] the IC50 at 96 h [1] was 2530 nM, the “HLM (t = 45)” value (Metabolic stability, HLM) was 6.1 and the “HLM (t = 90)” value (Metabolic stability, HLM) was 11.2. For the same molecule, the EC50 [2, 5] was 115 nM, the EC50 [2, 6] was 115 nM and the Combined rotamer purity (HPLC solution stability; [7]) was 95.4. For the same molecule, the “Purity larger rotamer peak” value (HPLC solution stability; [7]) was 89.8, the “Purity smaller rotamer peak” value (HPLC solution stability; [7]) was 5.7 and the Combined rotamer purity (HPLC solution stability; [8]) was 95.7. The “Purity larger rotamer peak” value (HPLC solution stability; [8]) was 86.8, the “Purity smaller rotamer peak” value (HPLC solution stability; [8]) was 8.9 and the Combined rotamer purity (HPLC solution stability; [9]) was 93.5. The “Purity larger rotamer peak” value (HPLC solution stability; [9]) was 82.3, the “Purity smaller rotamer peak” value (HPLC solution stability; [9]) was 11.2 and the Combined rotamer purity (HPLC solution stability; [10]) was 66.8. The “Purity larger rotamer peak” value (HPLC solution stability; [10]) was 47.5, the “Purity smaller rotamer peak” value (HPLC solution stability; [10]) was 19.4 and the Combined rotamer purity (HPLC solution stability; [11]) was 47.6. The “Purity larger rotamer peak” value (HPLC solution stability; [11]) was 35.1, the “Purity smaller rotamer peak” value (HPLC solution stability; [11]) was 12.5 and the Combined rotamer purity (HPLC solution stability; [12]) was 94.8. The “Purity larger rotamer peak” value (HPLC solution stability; [12]) was 88.7, the “Purity smaller rotamer peak” value (HPLC solution stability; [12]) was 6.1 and the Combined rotamer purity (HPLC solution stability; [13]) was 94.5. For the same molecule, the “Purity larger rotamer peak” value (HPLC solution stability; [13]) was 84.5, the “Purity smaller rotamer peak” value (HPLC solution stability; [13]) was 10.00 and the Combined rotamer purity (HPLC solution stability; [14]) was 94.5. The “Purity larger rotamer peak” value (HPLC solution stability; [14]) was 79.5, the “Purity smaller rotamer peak” value (HPLC solution stability; [14]) was 15.0 and the Combined rotamer purity (HPLC solution stability; [15]) was 79.3. For the same molecule, the “Purity larger rotamer peak” value (HPLC solution stability; [15]) was 48.4, the “Purity smaller rotamer peak” value (HPLC solution stability; [15]) was 30.9 and the Combined rotamer purity (HPLC solution stability; [16]) was 68.0. The Purity larger rotamer peak (HPLC solution stability; [16]) was 35.2%, the “Purity smaller rotamer peak” value (HPLC solution stability; [16]) was 32.8 and the Combined rotamer purity (HPLC solution stability; 100% IPA, 0 days) was 91.9. The “Purity larger rotamer peak” value (HPLC solution stability; 100% IPA, 0 days) was 86.4, the “Purity smaller rotamer peak” value (HPLC solution stability; 100% IPA, 0 days) was 5.5 and the Combined rotamer purity (HPLC solution stability; 100% IPA, 1 day, 25 ° C.) was 93.2. The “Purity larger rotamer peak” value (HPLC solution stability; 100% IPA, 1 day, 25 ° C.) was 87.2, the “Purity smaller rotamer peak” value (HPLC solution stability; 100% IPA, 1 day, 25 ° C.) was 6.0 and the Combined rotamer purity (HPLC solution stability; 100% IPA, 14 days, 25 ° C.) was 94.0. For the same molecule, the “Purity larger rotamer peak” value (HPLC solution stability; 100% IPA, 14 days, 25 ° C.) was 82.8, the “Purity smaller rotamer peak” value (HPLC solution stability; 100% IPA, 14 days, 25 ° C.) was 11.2 and the logD [3, 17] was -2.56. It also gave a logD [3, 18] of -1.47, a logD [3, 19] of 0.74 and a logP [3] of 5.02. For the same molecule, the “Measured LogPion” value [3] was 2.62 and the logP [4] was 1.4.
With `O=C(CCN1CCCC1)Nc1ccc2c(NCc3ccc(F)c(F)c3)c3ccc(NC(=O)CCN4CCCC4)cc3nc2c1` [BSG17, N-(9-(3,4-Difluoro-benzylamino)-6-(3-pyrolidin-1-yl-propionamide)-acridin-3-yl)-3-pyrrolidin-1-yl-propionamide] the IC50 at 96 h [1] was 2260 nM, the “HLM (t = 45)” value (Metabolic stability, HLM) was 3.1 and the “HLM (t = 90)” value (Metabolic stability, HLM) was 12.4. It also gave an EC50 [2, 5] of 32 nM, an EC50 [2, 6] of 162 nM and a Combined rotamer purity (HPLC solution stability; [7]) of 89.4. For the same molecule, the “Purity larger rotamer peak” value (HPLC solution stability; [7]) was 61.4, the “Purity smaller rotamer peak” value (HPLC solution stability; [7]) was 28.0 and the Combined rotamer purity (HPLC solution stability; [8]) was 85.1. For the same molecule, the “Purity larger rotamer peak” value (HPLC solution stability; [8]) was 58.4, the “Purity smaller rotamer peak” value (HPLC solution stability; [8]) was 26.8 and the Combined rotamer purity (HPLC solution stability; [9]) was 82.4. The “Purity larger rotamer peak” value (HPLC solution stability; [9]) was 55.9, the “Purity smaller rotamer peak” value (HPLC solution stability; [9]) was 26.5 and the Combined rotamer purity (HPLC solution stability; [10]) was 61.0. For the same molecule, the “Purity larger rotamer peak” value (HPLC solution stability; [10]) was 39.2, the “Purity smaller rotamer peak” value (HPLC solution stability; [10]) was 21.8 and the Combined rotamer purity (HPLC solution stability; [11]) was 54.5. For the same molecule, the “Purity larger rotamer peak” value (HPLC solution stability; [11]) was 33.8, the “Purity smaller rotamer peak” value (HPLC solution stability; [11]) was 20.8 and the Combined rotamer purity (HPLC solution stability; [12]) was 88.5. The “Purity larger rotamer peak” value (HPLC solution stability; [12]) was 60.7, the “Purity smaller rotamer peak” value (HPLC solution stability; [12]) was 27.8 and the Combined rotamer purity (HPLC solution stability; [13]) was 83.8. For the same molecule, the “Purity larger rotamer peak” value (HPLC solution stability; [13]) was 56.9, the “Purity smaller rotamer peak” value (HPLC solution stability; [13]) was 26.9 and the Combined rotamer purity (HPLC solution stability; [14]) was 78.0. For the same molecule, the “Purity larger rotamer peak” value (HPLC solution stability; [14]) was 52.4, the “Purity smaller rotamer peak” value (HPLC solution stability; [14]) was 25.6 and the Combined rotamer purity (HPLC solution stability; [15]) was 53.2. For the same molecule, the “Purity larger rotamer peak” value (HPLC solution stability; [15]) was 32.5, the “Purity smaller rotamer peak” value (HPLC solution stability; [15]) was 20.7 and the Combined rotamer purity (HPLC solution stability; [16]) was 39.4. For the same molecule, the “Purity larger rotamer peak” value (HPLC solution stability; [16]) was 22.3, the “Purity smaller rotamer peak” value (HPLC solution stability; [16]) was 17.1 and the Combined rotamer purity (HPLC solution stability; 100% IPA, 0 days) was 84.6. For the same molecule, the “Purity larger rotamer peak” value (HPLC solution stability; 100% IPA, 0 days) was 58.8, the “Purity smaller rotamer peak” value (HPLC solution stability; 100% IPA, 0 days) was 25.8 and the Combined rotamer purity (HPLC solution stability; 100% IPA, 1 day, 25 ° C.) was 81.5. The “Purity larger rotamer peak” value (HPLC solution stability; 100% IPA, 1 day, 25 ° C.) was 56.6, the “Purity smaller rotamer peak” value (HPLC solution stability; 100% IPA, 1 day, 25 ° C.) was 25.0 and the Combined rotamer purity (HPLC solution stability; 100% IPA, 14 days, 25 ° C.) was 77.2. For the same molecule, the “Purity larger rotamer peak” value (HPLC solution stability; 100% IPA, 14 days, 25 ° C.) was 52.7, the “Purity smaller rotamer peak” value (HPLC solution stability; 100% IPA, 14 days, 25 ° C.) was 24.5 and the logD [3, 17] was -0.15. The logD [3, 18] was 0.38, the logD [3, 19] was 1.58 and the logP [3] was 5.54. For the same molecule, the “Measured LogPion” value [3] was 3.75 and the logP [4] was 1.59.
